Assay results reported in the supplement of paper PMC10307832.

Tests used:
Experiment in all cases: relative viability (nuclei count vs DMSO), 5 days (fraction); higher = more cells survive
Idelalisib + Crizotinib = compound: CC[C@H](Nc1ncnc2[nH]cnc12)c1nc2cccc(F)c2c(=O)n1-c1ccccc1 [Idelalisib] + C[C@@H](Oc1cc(-c2cnn(C3CCNCC3)c2)cnc1N)c1c(Cl)ccc(F)c1Cl [Crizotinib] (partner 1 µM)
How it was run: (§1)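 For relative viability, nuclei counts in treated wells were divided by those in vehicle wells. Lung cancer cell lines had been pin-tool dosed in 1536-well plates the day after seeding and cultured for 5 days, then fixed and stained in one step (final 0.05% Triton X-100, 1% formaldehyde, 1 ug/ml Hoechst) and imaged at 4×. Doses were one drug alone or a fixed anchor-drug dose plus five library-drug doses (not always all listed) in √10 steps, and values are duplicate-plate medians.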

Pemetrexed + Pictilisib = compound: Nc1nc2[nH]cc(CCc3ccc(C(=O)N[C@@H](CCC(=O)O)C(=O)O)cc3)c2c(=O)[nH]1 [Pemetrexed] + CS(=O)(=O)N1CCN(Cc2cc3nc(-c4cccc5[nH]ncc45)nc(N4CCOCC4)c3s2)CC1 [Pictilisib] (partner 1 µM)
How it was run: as §1

Pemetrexed + Tozasertib = compound: Nc1nc2[nH]cc(CCc3ccc(C(=O)N[C@@H](CCC(=O)O)C(=O)O)cc3)c2c(=O)[nH]1 [Pemetrexed] + Cc1cc(Nc2cc(N3CCN(C)CC3)nc(Sc3ccc(NC(=O)C4CC4)cc3)n2)n[nH]1 [Tozasertib] (partner 0.1 µM)
How it was run: as §1

Pemetrexed + Palbociclib = compound: Nc1nc2[nH]cc(CCc3ccc(C(=O)N[C@@H](CCC(=O)O)C(=O)O)cc3)c2c(=O)[nH]1 [Pemetrexed] + CC(=O)c1c(C)c2cnc(Nc3ccc(N4CCNCC4)cn3)nc2n(C2CCCC2)c1=O [Palbociclib] (partner 0.5 µM)
How it was run: as §1

Cell Line	relative viability (Idelalisib + Crizotinib; first compound 0.04 µM)	relative viability (Idelalisib + Crizotinib; first compound 0.1265 µM)	relative viability (Idelalisib + Crizotinib; first compound 0.4 µM)	relative viability (Idelalisib + Crizotinib; first compound 1.265 µM)	relative viability (Idelalisib + Crizotinib; first compound 4 µM)	relative viability (Pemetrexed + Pictilisib; first compound 0.002 µM)	relative viability (Pemetrexed + Pictilisib; first compound 0.006325 µM)	relative viability (Pemetrexed + Pictilisib; first compound 0.02 µM)	relative viability (Pemetrexed + Pictilisib; first compound 0.06325 µM)	relative viability (Pemetrexed + Pictilisib; first compound 0.2 µM)	relative viability (Pemetrexed + Tozasertib; first compound 0.002 µM)	relative viability (Pemetrexed + Tozasertib; first compound 0.006325 µM)	relative viability (Pemetrexed + Tozasertib; first compound 0.02 µM)	relative viability (Pemetrexed + Tozasertib; first compound 0.06325 µM)	relative viability (Pemetrexed + Tozasertib; first compound 0.2 µM)	relative viability (Pemetrexed + Palbociclib; first compound 0.002 µM)	relative viability (Pemetrexed + Palbociclib; first compound 0.006325 µM)	relative viability (Pemetrexed + Palbociclib; first compound 0.02 µM)	relative viability (Pemetrexed + Palbociclib; first compound 0.06325 µM)	relative viability (Pemetrexed + Palbociclib; first compound 0.2 µM)
NCI-H2009	1.02	1.04	1.03	0.991	1.01	0.785	0.763	0.824	0.744	0.723	0.707	0.697	0.855	0.71	0.694	0.263	0.205	0.194	0.22	0.203
LC-2-ad	0.427	0.415	0.447	0.439	0.508	0.402	0.306	0.428	0.211	0.123	0.378	0.45	0.43	0.296	0.259	0.452	0.501	0.524	0.431	0.404
NCI-H1437	0.894	0.992	0.851	0.968	1.12	0.297	0.422	0.389	0.267	0.193		0.402	0.37	0.357	0.228	0.214	0.307	0.303	0.307	0.329
NCI-H3122	0.296	0.28	0.3	0.283	0.289	0.6	0.584	0.628	0.526	0.338	0.404	0.371	0.367	0.198	0.118	0.164	0.192	0.206	0.222	0.165
NCI-H727	0.81	0.798	0.76	1	0.797	0.398	0.399	0.415	0.378	0.369	0.6	0.584	0.498	0.738	0.61	0.721	0.692	0.638	0.633	0.613
NCI-H1734	0.789	0.639	0.604	0.685	0.527	0.461	0.457	0.489	0.475	0.376	0.249	0.221	0.268	0.284	0.248	0.192	0.358	0.366	0.333	0.346
HCC-15	0.809	0.842	0.72	0.885	0.762	0.629	0.777	0.766	0.544	0.238	0.431	0.394	0.497	0.407	0.205	0.661	0.712	0.717	0.669	0.309
NCI-H2405	0.846	0.814	0.708	0.76	0.692	0.455	0.436	0.507	0.474	0.355	0.75	0.738	0.832	0.778	0.694	0.524	0.531	0.535	0.514	0.48
NCI-H1993	0.873	0.893	0.879	0.834	0.73	0.899	0.97	0.819	0.743	0.882	0.68	0.46	0.523	0.615	0.506	1.1	0.605	0.635	0.727	0.554
NCI-H1650	0.87	0.892	0.975	0.985	0.952	0.545	0.559	0.658	0.333	0.226	0.388	0.353	0.47	0.304	0.298	0.284	0.299	0.381	0.247	0.245
NCI-H460	1.39	0.784	0.842	0.928	0.83	0.233	0.396	0.383	0.313	0.121	0.108	0.48	0.511	0.272	0.0837		0.142	0.206	0.0722	0.0459
NCI-H1651	0.919	0.861	0.846	0.864	0.876	0.627	0.49	0.658	0.554	0.556	0.684	0.645	0.703	0.658	0.644	0.548	0.477	0.52	0.495	0.529
NCI-H1975	1.08	0.944	0.817	1	0.81		0.3	0.299	0.271	0.221	0.756	0.752	0.768	0.704	0.297	0.306	0.562	0.606	0.375	0.237
NCI-H2126	1.04	1	0.967	1.03	1.02	0.451	0.479	0.494	0.487	0.436	0.711	0.845	0.875	0.775	0.643	0.363	0.327	0.409	0.339	0.359
201T	1.02	1.07	0.999	1.08	1.02	0.625	0.698	0.715	0.632	0.5	0.833	0.97	0.971	0.976	0.871	0.396	0.352	0.365	0.335	0.362
HCC-78	0.322	0.354	0.296	0.31	0.274		0.179	0.197	0.14	0.157	0.312	0.32	0.378	0.308	0.259	0.443	0.484	0.441	0.417	0.424
NCI-H358	0.646	0.579	0.496	0.549	0.516	0.338	0.264	0.29	0.243	0.21	0.116	0.141	0.108	0.102	0.0813	0.149	0.111	0.14	0.134	0.137
SK-LU-1	0.923	1.06	0.826	0.777	0.826	0.43	0.559	0.727	0.513	0.496	0.303	0.324	0.374	0.378	0.333	0.54	0.379	0.391	0.413	0.375
H3255	0.77	0.898	0.757	0.876	0.734	0.385	0.43	0.504	0.42	0.431	0.653	0.707	0.754	0.709	0.555	0.351	0.319	0.312	0.31	0.328
LOU-NH91	0.791	0.711	0.677	0.68	0.727	0.511	0.488	0.551	0.453	0.392	0.656	0.676	0.706	0.54	0.366	0.478	0.555	0.543	0.534	0.52
NCI-H1666	0.953	1.03	0.809	0.964	0.721	0.373	0.481	0.347	0.497	0.306	0.582	0.554	0.633	0.593	0.598	0.666	0.647	0.704	0.674	0.623
SK-MES-1	1.06	0.959	0.888	0.876	0.789	0.34	0.327	0.349	0.322	0.401	0.891	0.843	0.879	0.843	0.817	0.316	0.305	0.353	0.33	0.327
NCI-H2023	0.63	0.662	0.487	0.579	0.54	0.136	0.231	0.237	0.218	0.117	0.245	0.338	0.364	0.379	0.223	0.347	0.387	0.384	0.323	0.125
COR-L 105	0.702	0.948	0.709	0.778	0.775	0.406	0.463	0.423	0.386	0.416	0.431	0.332	0.31	0.366	0.338	0.295	0.424	0.399	0.396	0.423
NCI-H838	0.791	0.906	0.724	0.8	0.695	0.443	0.392	0.532	0.267	0.248	0.229	0.276	0.295	0.265	0.203	0.219	0.223	0.28	0.252	0.173
SW 1573	0.794	0.682	0.836	0.832	0.833	0.421	0.475	0.488	0.533	0.463	0.241	0.197	0.201	0.139	0.178	0.352	0.423	0.435	0.413	0.235
